Like-named read-outs stand apart in the source and are kept apart here.
Assays:
[1] = MR relaxivity, phantom at 9.4 T
Procedure: The hydrodynamic size of INV-001 was measured to be 3.6 nm (FIG. 3b). Subsequently, the T1 and T2 relaxation rates (1/T1 and 1/T2) of INV-001 were measured at 9.4 T (FIG. 3c). The longitudinal and transverse relaxivities (r1 and r2) were calculated at various INV-001 concentrations (0.125, 0.25, 0.5, and 1.0 mM). The r1 was determined to be 2.61 mM^-1·s^-1 and the r2 was 4.33 mM^-1·s^-1 (FIGS. 3d and 3e).

lymphatic vessels = experiment: MRL after intradermal injection, Example 2; format: in vivo, rats; conditions: lower limb, checked with methylene blue
Procedure: INV-001 was administered intradermally into the interdigital space of the lower limb of animals using a 31-gauge syringe. The injection volume was set at 10, 20, 30, 40, 50, or 75 microliters per animal, corresponding to a human equivalent dose of 2, 4, 6, 8, 10, or 15 mL, respectively.
Prior to MRI acquisition, the animals were anesthetized by inhalation of isoflurane delivered in oxygen at a concentration of 0.5-2%. If necessary, local anesthesia with lidocaine was applied to relieve procedural discomfort.
Baseline MRI images were acquired prior to the administration of the contrast agent. Following the injection of INV-001 prepared in Example 2-1, MRI scans were conducted every 16 minutes for a total of 96 minutes. The imaging sequence used was 3D Time-of-Flight Gradient Echo (3D TOF GRE), with images obtained in axial, sagittal, and coronal planes. […]
Maximum intensity projection (MIP) images were generated from the baseline and post-injection MRI data acquired at 16-minute intervals for 96 minutes. […] The overall image quality, including vessel discontinuity, was assessed using a four-point scale (-, +, ++, +++). Additionally, the presence of dermal backflow and lymph node congestion was evaluated. […]
To confirm the clearance of the injected contrast agent, the administration site was evaluated 24 hours after intradermal injection.

[2] = test system: popliteal lymph node and surrounding lymphatic vessels; experiment: Magnetic resonance lymphangiography (MRL) in rats, Example 1; format: in vivo, male Sprague-Dawley (SD) rats
Procedure: Specifically, all animals used in Example 1 were male Sprague-Dawley (SD) rats weighing 250-300 g. The prepared contrast agent was administered intradermally/subcutaneously into the fourth digits of both hind limbs using a 30-gauge needle. MRL was performed every 16 minutes using a 3D time-of-flight (TOF) sequence with a saturation band on a 9.4-T preclinical MRI scanner.
Gd-DOTA (Gd-DOTA, DOTAREM, Guerbet, Roissy CdG Cedex, France) was used as a Gd-based contrast agent. The Gd-DOTA stock solution, provided at a concentration of 500 mM, was diluted with normal saline before its administration.
The signal-to-noise ratio (SNR) and contrast-to-noise ratio (CNR) of the popliteal lymph node and surrounding lymphatic vessels were analyzed at a dose of 1.125 µmol (75 µL, 15 mM) of INV-001 and Gd-DOTA. Through sequential MRI imaging, dynamic patterns of SNR and CNR and peak time points in the popliteal lymph node and lymphatic vessels were obtained (FIG. 4a). […] In the 1.125 µmol INV-001 group, peak enhancement appeared between 16 and 32 minutes during extended visualization (SNRLN: 23.49 ± 8.64; SNRLV: 16.05 ± 3.52; CNRLN: 15.87 ± 11.05; CNRLV: 12.58 ± 3.37) (FIG. 4b).
Following injection of the contrast agents into the hind limb, magnetic resonance lymphangiography (MRL) was performed using 3D TOF under saturation band conditions to distinguish lymphatic vessels. […] In contrast, in all INV-001 groups, the popliteal lymph node and lymphatic vessels were clearly visualized without venous contamination (FIGs. 5e, 5f, and 5g, yellow arrows). Methylene blue was injected two days after MRL to verify the anatomical structures (FIGs. 5d and 5h).
Qualitative image analyses under various injection conditions were performed using Gd-DOTA and INV-001. In all groups, MRL provided good visualization of the popliteal lymph node and lymphatic vessels (FIG. 6). The qualitative image analysis was conducted according to the criteria shown in Table 1 (Criteria for qualitative score).

[3] = MR relaxivity, phantom at 3 T; conditions: 3 T MRI
Source text: The r2/r1 ratio serves as a metric for determining whether the nanoparticles are more appropriate for use as T1 MRI contrast agents or T2 MRI contrast agents.
The hydrodynamic diameter of the synthesized INV-001 was 3.9 nm with a surface charge of -3.3 mV. […] The particle size of this contrast agent exceeds the maximum size (2 nm) permissible for intravasation, thereby preventing its entry into blood vessels. Thus, it is theoretically suitable for use as a lymphatic-specific contrast agent that infiltrates the lymphatic vessels without venous contamination when administered intradermally or subcutaneously.
The measured r1 and r2 relaxivity values of NEMO-103 were 2.0 mM^-1s^-1 and 2.3 mM^-1s^-1, respectively (FIGS. 29d and 29e). The r2/r1 ratio, which is an important parameter for T1 MRI contrast agents, was calculated to be 1.15. […] For comparison, the measured r1 and r2 values of Dotarem® were 4.7 mM^-1s^-1 and 5.2 mM^-1s^-1, respectively, resulting in an r2/r1 ratio of 1.11.
To evaluate the T1 MRI performance of the materials from Example 7-7, both the spin-spin relaxivity coefficient (r2) and spin-lattice relaxivity coefficient (r1) were measured, and the r2/r1 ratio was calculated. The r2/r1 ratio is a critical indicator in determining whether a contrast agent is suitable for T1 or T2 MRI.

knee joint cavity = experiment: Magnetic resonance arthrography after intra-articular injection in rats; format: in vivo, Male Sprague-Dawley rats
Procedure: Male Sprague-Dawley rats aged 7 weeks or older were anesthetized using a mixture of oxygen and isoflurane gas. INV-002 synthesized in Example 4-1 was then administered into the knee joint, and T1-weighted MRI images were acquired using a fast spin echo sequence.
For example, the T1 signal intensity of the synovial fluid increased from 4,900 (before injection) to 21,000 (after injection). Subsequently, the contrast-to-noise ratios (CNRs) of various anatomical regions within the joint cavity- including the meniscus, joint capsule, cruciate ligament, bone, and fat - were analyzed (FIG. 22F). The CNR was calculated as the difference in average signal intensity between the synovial fluid and each anatomical structure, divided by the standard deviation of the background signal. After INV-002 injection, the CNRs for the meniscus, capsule, cruciate ligament, bone, and fat regions increased by 10-fold, 8.5-fold, 18-fold, 14-fold, 12-fold, […], respectively, compared to pre-injection levels.
The contrast effect of INV-002 was not only stronger than that of the gadolinium-based contrast agent (e.g., Dotarem) but also lasted longer. For quantitative analysis of contrast enhancement, the signal-to-noise ratio (SNR) was measured at two intra-articular locations (indicated by orange arrows), and the average SNR was plotted over time. […]

[4] = 1.125 µmol (75 µL, 15 mM), at peak enhancement

Compound: CNC[C@H](O)[C@@H](O)[C@H](O)[C@H](O)CO.O=C([O-])CN1CCN(CC(=O)[O-])CCN(CC(=O)O)CCN(CC(=O)[O-])CC1.[Gd+3] [Gd-DOTA]
- T1 contrast enhancement in phantom studies [1]: ~3.7 mM⁻¹ s⁻¹
- enhancement of lymphatic vessels versus veins (venous contamination) (lymphatic vessels): preferentially enhanced veins more than lymphatic vessels
- qualitative score [2]: 3.2
- venous contamination ([2]; 1.125 µmol (75 µL, 15 mM), hind limb): venous contamination was observed
- CNRLN [2, 4]: 21.61 ± 10.04
- CNRLV [2, 4]: 7.89 ± 5.15
- SNRLV [2, 4]: 11.15 ± 5.83
- SNRLN ([2]; 1.125 µmol (75 µL, 15 mM), at peak enhancement (Gd-DOTA 16 min, INV-001 16-32 min)): 26.96 ± 10.78
- qualitative score ([2]; 2.25 µmol (75 µL, 30 mM)): 3.8
- venous contamination ([2]; 2.25 µmol (75 µL, 30 mM), hind limb): venous contamination was observed
- venous contamination ([2]; doses of 0.45 µmol or higher (discussion)): venous contamination in most animals
- time of peak enhancement post-injection ([2]; popliteal lymph node and lymphatic vessels, scans every 16 min): 16 min
- r1 [3]: 4.7 mM⁻¹ s⁻¹
- time of peak SNR post-injection (knee joint cavity; average of two intra-articular locations): 0.25 h
- SNR dropped to baseline within (knee joint cavity; post-injection): ≤ 0.5 h
